Measurements from ChEMBL document CHEMBL4680217, “Discovery of PROTAC BCL-X degraders as potent anticancer agents with low on-target platelet toxicity” (Eur J Med Chem, 2020).
Active and inactive are the calls of the source. The rule behind the calls is not given here.

Experiments:
[1] = molecular target: T1, Protein cereblon/Bcl-2-like protein 1 (Homo sapiens, UniProt Q07817+Q96SW2); assay: Protac activity at CRBN/BCL-XL in human MOLT-4 cells assessed as induction of BCL-XL degradation at 33 to 1000 nM measured after 16 hrs by immunoblotting analysis; assay type: cell-based; details: dose 33-1000 nM
[2] = test system: MOLT-4; assay: Induction of apoptosis in human MOLT-4 cells assessed as viable cells at 10 nM measured after 48 hrs by Alexa Fluor 647-Annexin V/propidium iodide staining based flow cytometry (reference value: 97.1 to 97.3%); assay type: functional; details: read-out: Activity
[3] = test system: RS4-11; assay: Antiproliferative activity against human RS4-11 cells assessed as reduction in cell viability measured after 48 hrs by MTS assay; assay type: functional, cell-based; details: RS4-11, 48 h
[4] = test system: MOLT-4; assay: Induction of apoptosis in human MOLT-4 cells assessed as early apoptotic cells at 100 nM measured after 48 hrs in presence of pan-caspase inhibitor QVD by Alexa Fluor 647-Annexin V/propidium iodide staining based flow cytometry (reference value: 1.5 to 1.7%); assay type: functional
[5] = test system: MOLT-4; assay: Induction of apoptosis in human MOLT-4 cells assessed as late apoptotic cells at 100 nM measured after 48 hrs by Alexa Fluor 647-Annexin V/propidium iodide staining based flow cytometry (reference value: 1.1 to 1.4%); assay type: functional
[6] = test system: MOLT-4; assay: Induction of apoptosis in human MOLT-4 cells assessed as late apoptotic cells at 10 nM measured after 48 hrs by Alexa Fluor 647-Annexin V/propidium iodide staining based flow cytometry (reference value: 1.1 to 1.4%); assay type: functional
[7] = test system: NCI-H146; assay: Antiproliferative activity against human NCI-H146 cells assessed as reduction in cell viability measured after 48 hrs by MTS assay; assay type: functional, cell-based; details: NCI-H146, 48 h
[8] = test system: MOLT-4; assay: Induction of apoptosis in human MOLT-4 cells assessed as necrotic cells at 100 nM measured after 48 hrs in presence of pan-caspase inhibitor QVD by Alexa Fluor 647-Annexin V/propidium iodide staining based flow cytometry (reference value: 0.3 to 0.4%); assay type: functional
[9] = test system: MOLT-4; assay: Induction of apoptosis in human MOLT-4 cells assessed as early apoptotic cells at 10 nM measured after 48 hrs by Alexa Fluor 647-Annexin V/propidium iodide staining based flow cytometry (reference value: 1.5 to 1.7%); assay type: functional
[10] = test system: MOLT-4; assay: Induction of apoptosis in human MOLT-4 cells assessed as early apoptotic cells at 100 nM measured after 48 hrs by Alexa Fluor 647-Annexin V/propidium iodide staining based flow cytometry (reference value: 1.5 to 1.7%); assay type: functional
[11] = Selectivity index, ratio of IC50 for human platelet to IC50 for human MOLT-4 cells
[12] = test system: MOLT-4; assay: Induction of apoptosis in human MOLT-4 cells assessed as necrotic cells at 100 nM measured after 48 hrs by Alexa Fluor 647-Annexin V/propidium iodide staining based flow cytometry (reference value: 0.3 to 0.4%); assay type: functional
[13] = test system: MOLT-4; assay: Induction of apoptosis in human MOLT-4 cells assessed as late apoptotic cells at 100 nM measured after 48 hrs in presence of pan-caspase inhibitor QVD by Alexa Fluor 647-Annexin V/propidium iodide staining based flow cytometry (reference value: 1.1 to 1.4%); assay type: functional
[14] = test system: MOLT-4; assay: Antiproliferative activity against human MOLT-4 cells assessed as reduction in cell viability measured after 48 hrs by MTS assay; assay type: functional, cell-based; details: MOLT-4, 48 h
[15] = test system: MOLT-4; assay: Induction of apoptosis in human MOLT-4 cells assessed as viable cells at 100 nM measured after 48 hrs by Alexa Fluor 647-Annexin V/propidium iodide staining based flow cytometry (reference value: 97.1 to 97.3%); assay type: functional; details: read-out: Activity
[16] = test system: MOLT-4; assay: Induction of apoptosis in human MOLT-4 cells assessed as viable cells at 100 nM measured after 48 hrs in presence of pan-caspase inhibitor QVD by Alexa Fluor 647-Annexin V/propidium iodide staining based flow cytometry (reference value: 97.1 to 97.3%); assay type: functional; details: read-out: Activity
[17] = test system: MOLT-4; assay: Induction of apoptosis in human MOLT-4 cells assessed as necrotic cells at 10 nM measured after 48 hrs by Alexa Fluor 647-Annexin V/propidium iodide staining based flow cytometry (reference value: 0.3 to 0.4%); assay type: functional
[18] = Toxicity in human platelet assessed as reduction in cell viability measured after 48 hrs by MTS assay; assay type: tissue-based; details: human platelets
[19] = molecular target: T1, Protein cereblon/Bcl-2-like protein 1; assay: Protac activity at CRBN/BCL-XL in human MOLT-4 cells assessed as induction of BCL-XL degradation at 10 to 100 nM measured after 16 hrs in presence of competitive CRBN ligand pomalidomide by immunoblotting analysis; assay type: cell-based; details: dose 10-100 nM
[20] = molecular target: T2, Cereblon/Ikaros (Homo sapiens) (UniProt Q96SW2+Q13422); assay: Protac activity at CRBN/IKZF1 in human MOLT-4 cells assessed as induction of IKZF1 degradation at 100 nM measured after 16 hrs by immunoblotting analysis; assay type: cell-based
[21] = molecular target: T3, Protein cereblon/Zinc finger protein Aiolos (Homo sapiens) (UniProt Q96SW2+Q9UKT9); assay: Protac activity at CRBN/IKZF3 in human MOLT-4 cells assessed as induction of IKZF3 degradation at 10 nM measured after 16 hrs by immunoblotting analysis; assay type: cell-based
[22] = test system: MOLT-4; assay: Induction of apoptosis in human MOLT-4 cells assessed as increase in cleaved PARP expression measured after 16 hrs by immunoblotting analysis; assay type: functional, cell-based
[23] = molecular target: T1, Protein cereblon/Bcl-2-like protein 1; assay: Protac activity at CRBN/BCL-XL in human MOLT-4 cells assessed as induction of BCL-XL degradation by measuring remaining BCL-XL level at 50 nM measured after 16 hrs by immunoblotting analysis relative to control; assay type: cell-based
[24] = molecular target: Protein cereblon/Apoptosis regulator Bcl-2 (Homo sapiens) (UniProt P10415+Q96SW2); assay: Protac activity at CRBN/BCL2 in human MOLT-4 cells assessed as induction of BCL2 degradation at 50 nM measured after 16 hrs by immunoblotting analysis; assay type: cell-based
[25] = molecular target: T1, Protein cereblon/Bcl-2-like protein 1; assay: Protac activity at CRBN/BCL-XL in human MOLT-4 cells assessed as induction of BCL-XL degradation at 100 nM measured within 2 hrs by immunoblotting analysis; assay type: cell-based
[26] = Ratio of IC50 for human MOLT-4 cells in presence of pomalidomide to IC50 for human MOLT-4 cells; assay type: functional
[27] = test system: MOLT-4; assay: Potency index, ratio of ABT-263 IC50 to test compound IC50 for antiproliferative activity against human MOLT-4 cells assessed as reduction in cell viability measured after 48 hrs by MTS assay; assay type: functional
[28] = molecular target: T1, Protein cereblon/Bcl-2-like protein 1; assay: Protac activity at CRBN/BCL-XL in human platelet assessed as induction of BCL-XL degradation up to 1 uM measured after 16 hrs by immunoblotting analysis; details: dose microM <=1, time 16.0 hrs
[29] = test system: MOLT-4; assay: Induction of apoptosis in human MOLT-4 cells assessed as increase in cleaved caspase-3 expression measured after 16 hrs by immunoblotting analysis; assay type: functional, cell-based
[30] = molecular target: T1, Protein cereblon/Bcl-2-like protein 1; assay: Protac activity at CRBN/BCL-XL in human MOLT-4 cells assessed as induction of BCL-XL degradation measured after 16 hrs by immunoblotting analysis; assay type: cell-based
[31] = molecular target: T1, Protein cereblon/Bcl-2-like protein 1; assay: Protac activity at CRBN/BCL-XL in human MOLT-4 cells assessed as induction of BCL-XL degradation at 3.7 to 300 nM measured after 16 hrs in presence of proteasome inhibitor MG-132 by immunoblotting analysis; assay type: cell-based; details: dose 3.7-300 nM
[32] = molecular target: T2, Cereblon/Ikaros (Homo sapiens); assay: Protac activity at CRBN/IKZF1 in human MOLT-4 cells assessed as induction of IKZF1 degradation at 10 nM measured after 16 hrs by immunoblotting analysis; assay type: cell-based
[33] = molecular target: T1, Protein cereblon/Bcl-2-like protein 1; assay: Protac activity at CRBN/BCL-XL in human MOLT-4 cells assessed as induction of BCL-XL degradation at 100 nM measured after 8 hrs by immunoblotting analysis relative to control; assay type: cell-based
[34] = molecular target: T1, Protein cereblon/Bcl-2-like protein 1; assay: Protac activity at CRBN/BCL-XL in human MOLT-4 cells assessed as induction of BCL-XL degradation at 100 nM preincubated for 16 hrs followed by compound washout by immunoblotting analysis; assay type: cell-based
[35] = molecular target: T3, Protein cereblon/Zinc finger protein Aiolos (Homo sapiens); assay: Protac activity at CRBN/IKZF3 in human MOLT-4 cells assessed as induction of IKZF3 degradation at 100 nM measured after 16 hrs by immunoblotting analysis; assay type: cell-based
[36] = molecular target: von Hippel-Lindau disease tumor suppressor/Apoptosis regulator Bcl-2 (Homo sapiens) (UniProt P10415+P40337); assay: Protac activity at VHL/BCL2 in human MOLT-4 cells assessed as induction of BCL2 degradation at 100 nM measured after 16 hrs by immunoblotting analysis; assay type: cell-based
[37] = molecular target: T4, von Hippel-Lindau disease tumor suppressor/Bcl-2-like protein 1 (Homo sapiens, UniProt Q07817+P40337); assay: Protac activity at VHL/BCL-XL in human MOLT-4 cells assessed as induction of BCL-XL degradation by measuring remaining BCL-XL level at 100 nM measured after 16 hrs by immunoblotting analysis relative to control; assay type: cell-based
[38] = molecular target: T4, von Hippel-Lindau disease tumor suppressor/Bcl-2-like protein 1; assay: Protac activity at VHL/BCL-XL in human MOLT-4 cells assessed as induction of BCL-XL degradation measured after 16 hrs by immunoblotting analysis; assay type: cell-based

In the case of `CN(CCOCCOCCOCCNc1cccc2c1C(=O)N([C@@H]1CCC(=O)N(C)C1=O)C2=O)CC[C@H](CSc1ccccc1)Nc1ccc(S(=O)(=O)NC(=O)c2ccc(N3CCN(CC4=C(c5ccc(Cl)cc5)CCC(C)(C)C4)CC3)cc2)cc1S(=O)(=O)C(F)(F)F`, the Activity [1] is reported as “inactive”.

`CN(C)CC[C@H](CSc1ccccc1)Nc1ccc(S(=O)(=O)NC(=O)c2ccc(N3CCN(Cc4ccccc4-c4ccc(Cl)cc4)CC3)cc2)cc1[N+](=O)[O-]` [ABT 737] showed a viability at 0.01 µM [2] of 96%, an IC50 [3] of 49 nM and an Activity [4] of 2.6%. For the same compound, the Activity [5] was 11.6%, the Activity [6] was 1.4% and the IC50 [7] was 43.8 nM. The Activity [8] was 5.4%, the Activity [9] was 2.5% and the Activity [10] was 47.4%. For the same compound, the “Ratio IC50” value [11] was 1.1, the Activity [12] was 0.4% and the Activity [13] was 8.6%. It also gave an IC50 [14] of 227 nM, a viability at 0.1 µM [15] of 40.7% and a viability at 0.1 µM [16] of 83.1%. The Activity [17] was 0.1% and the IC50 at 48 h [18] was 242 nM.

With `CN(CCOCCOCCOCCNc1cccc2c1C(=O)N([C@@H]1CCC(=O)NC1=O)C2=O)CC[C@H](CSc1ccccc1)Nc1ccc(S(=O)(=O)NC(=O)c2ccc(N3CCN(CC4=C(c5ccc(Cl)cc5)CCC(C)(C)C4)CC3)cc2)cc1S(=O)(=O)C(F)(F)F` the Activity [19] was “inactive”, the viability at 0.01 µM [2] was 21.9% and the IC50 [3] was 41.8 nM. For the same compound, the Activity [4] was 18.7%, the Activity [5] was 52.7% and the Activity [20] was “Active”. For the same compound, the Activity [21] was “inactive”, the Activity [6] was 18.7% and the IC50 [7] was 25.3 nM. The Activity [22] was “Dose-dependent effect”, the Activity [23] was 4% and the Activity [8] was 1.3%. For the same compound, the Activity [24] was “inactive”, the Activity [9] was 58.1% and the Activity [10] was 45.5%. For the same compound, the “Ratio IC50” value [11] was 120, the Activity [12] was 0.2% and the Activity [13] was 56.7%. For the same compound, the Activity [25] was “Active”, the “Ratio IC50” value [26] was 27 and the IC50 [14] was 10.1 nM. For the same compound, the “Ratio IC50” value [27] was 22, the Activity [28] was “inactive” and the viability at 0.1 µM [15] was 1.4%. For the same compound, the Activity [29] was “Dose-dependent effect”, the Activity [30] was “Dose-dependent effect” and the DC50 [30] was 2.5 nM. For the same compound, the viability at 0.1 µM [16] was 23.1%, the Activity [31] was “inactive” and the Activity [32] was “inactive”. The Activity [17] was 1%, the Activity [33] was over 96% and the Activity [34] was “inactive”. For the same compound, the Activity [35] was “Active” and the IC50 at 48 h [18] was 1220 nM.

In the case of `Cc1ncsc1-c1ccc([C@H](C)NC(=O)[C@@H]2C[C@@H](O)CN2C(=O)[C@@H](NC(=O)CCCCCC(=O)N2CCN(CC[C@H](CSc3ccccc3)Nc3ccc(S(=O)(=O)NC(=O)c4ccc(N5CCN(CC6=C(c7ccc(Cl)cc7)CCC(C)(C)C6)CC5)cc4)cc3S(=O)(=O)C(F)(F)F)CC2)C(C)(C)C)cc1` [DT-2216], the IC50 [3] is reported as 213 nM, the Activity [36] is reported as “inactive” and the IC50 [7] is reported as 278 nM. For the same compound, the Activity [37] was 14%, the “Ratio IC50” value [11] was over 130 and the IC50 [14] was 77.1 nM. For the same compound, the DC50 [38] was 53 nM and the IC50 at 48 h [18] was over 10000 nM.
